Assay results reported in PubChem BioAssay (NCI).
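Compound exposure: 48 hours, 5 concentrations, 96-well plates. TGI denotes the concentration required for complete inhibition of growth.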

How the values were obtained:
Assay in all cases: NCI tumour cell line growth inhibition, 48 h
[1] = test system: P388/ADR leukemia
[2] = test system: P388 leukemia
[3] = test system: M19-MEL melanoma
[4] = test system: XF 498 CNS
[5] = test system: DMS 114 small cell lung
[6] = test system: SN12K1 renal
[7] = test system: KM20L2 colon
[8] = test system: DMS 273 small cell lung
[9] = test system: LXFL 529 NSCLC
[10] = test system: RXF-631 renal

| Structure (SMILES) | TGI [1] [nM] | TGI [2] [nM] | TGI [3] [µM] | TGI [4] [µM] | TGI [5] [µM] | TGI [6] [µM] | TGI [7] [µM] | TGI [8] [µM] | TGI [9] [µM] | TGI [10] [µM] |
| --- | --- | --- | --- | --- | --- | --- | --- | --- | --- | --- |
| C=C1C(C)C2C(Cc3ccccc3)NC(=O)C23OC(=O)/C=C\CC(=O)CCC(C)C/C=C/C3C1O (centres undefined) | 2100 | 385 | 12.5 | 1.07 | 6.61 | 3.43 | 15.8 | 14.1 | – | – |
| [N-]=[N+]=NCC(O)Cn1cnc2c(NC(=O)c3ccccc3)ncnc21 (centres undefined) | – | – | > 100 | > 100 | > 100 | – | > 100 | > 100 | > 100 | – |
| O=c1c2ccccc2nc2ccc3c(Cl)[nH][nH]c3c12 | – | – | > 100 | – | > 100 | – | > 100 | > 100 | > 100 | > 100 |
| CCOC(=O)C1=C(O)c2ccc(C)cc2C(=O)C1=O | – | – | 32.3 | > 100 | > 100 | – | > 100 | > 100 | – | – |
| CCCCN(C)/N=N/c1nc[nH]c1C(N)=O | > 100000 | > 100000 | > 100 | 95.5 | > 100 | > 100 | > 100 | > 100 | – | – |
| CC(C)c1cc(C(C)C)c(S(=O)(=O)N=[N+]=[N-])c(C(C)C)c1 | – | – | > 100 | > 100 | – | – | > 100 | > 100 | > 100 | > 100 |
| CSc1cnc2ccccc2c1Sc1c[nH]c2ccccc2c1=O | – | – | 34.6 | – | 32.9 | – | 15.9 | > 45.5 | 46.3 | – |
| Cc1c2ccncc2c(C)c2c1[nH]c1ccc(OCCN(C)C)cc12 | 128 | 67.5 | 2.17 | 2.19 | – | 0.381 | 1.18 | 0.321 | – | – |
| CCC(=O)OC1CCn2c1nc1c2C(=O)C(C)=C(NC(C)=O)C1=N (centres undefined) | – | – | 0.365 | 4.31 | 3.53 | – | 3.38 | 3.11 | – | – |
| CCN(CC)CC1CCCCN1CC(=O)N1CC(C)C(=O)Nc2ccccc21 (centres undefined) | – | – | > 100 | – | > 100 | – | > 100 | > 100 | > 100 | – |
| O=C(Nc1nn[nH]n1)c1nc(-c2ccccc2)cc(=O)[nH]1 | – | – | > 100 | > 100 | > 100 | – | > 100 | – | > 100 | – |
| COc1ccc(C)cc(=O)c1O | – | – | > 100 | – | 50.4 | – | > 100 | > 100 | > 100 | – |
| COc1cc2c(c(OC)c1OC)-c1ccc(SC)c(=O)cc1[C@@H](NCc1ccc([N+](=O)[O-])cc1)CC2 | – | – | > 100 | – | 0.00735 | – | 0.00435 | 1.06 | > 100 | – |
| O=C1C2C=CC(n3[nH]c(=O)n(Cc4ccccc4)c3=O)CC2C(=O)N1c1ccc(Br)cc1 (centres undefined) | – | – | > 100 | – | > 100 | – | > 100 | > 100 | > 100 | – |
| N/C(=N\N=C\c1ncccc1O)NO | 11500 | 12800 | > 78.6 | 69.2 | > 100 | > 69 | > 100 | > 59.4 | – | – |
